# Measured values taken from patent US20240116988A1, “ANTI-ROR1 MACROCYCLIC PEPTIDES AND COMPOSITIONS” (BRISTOL-MYERS SQUIBB COMPANY, priority 2022, published 2024).
# Positions of bridges follow the written chain, without caps; N, C: chain ends. Non-standard residues stand in square brackets, D forms with d. Residues, ends and D or L forms follow the SMILES beside them. ξ: configuration not given here. NMeF = CN[C@@H](Cc1ccccc1)C(=O)O; PEG5 = NCCOCCOCCOCCOCCOCCC(=O)O; NMeNle = CCCC[C@H](NC)C(=O)O; PEG3 = NCCOCCOCCOCCC(=O)O; NMeA = CN[C@@H](C)C(=O)O; AEEA = NCCOCCOCC(=O)O; ξL = CC(C)CC(N)C(=O)O
# Biological target: T1, human ROR1 (Homo sapiens, UniProt Q01973)
# T1 construct: host or cells: HEK 293T cells, Tet-on system induced with doxycycline
# Test: ROR1 high content cell-based binding assay
# Conditions: read-out: ROR1 Binding 293T Human HC Cell Based Assay IC50
# Outline: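 Doxycycline-induced 293T cells expressing human ROR1, seeded overnight, were treated with compound plus 5-FAM-labeled ROR1-binding probe peptide (30 nM final) for 1 h at 37 °C. After washing and formaldehyde/Hoechst fixation, cell-bound probe fluorescence was read by high-content imaging.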
# T1 sequence (Q01973 30-937): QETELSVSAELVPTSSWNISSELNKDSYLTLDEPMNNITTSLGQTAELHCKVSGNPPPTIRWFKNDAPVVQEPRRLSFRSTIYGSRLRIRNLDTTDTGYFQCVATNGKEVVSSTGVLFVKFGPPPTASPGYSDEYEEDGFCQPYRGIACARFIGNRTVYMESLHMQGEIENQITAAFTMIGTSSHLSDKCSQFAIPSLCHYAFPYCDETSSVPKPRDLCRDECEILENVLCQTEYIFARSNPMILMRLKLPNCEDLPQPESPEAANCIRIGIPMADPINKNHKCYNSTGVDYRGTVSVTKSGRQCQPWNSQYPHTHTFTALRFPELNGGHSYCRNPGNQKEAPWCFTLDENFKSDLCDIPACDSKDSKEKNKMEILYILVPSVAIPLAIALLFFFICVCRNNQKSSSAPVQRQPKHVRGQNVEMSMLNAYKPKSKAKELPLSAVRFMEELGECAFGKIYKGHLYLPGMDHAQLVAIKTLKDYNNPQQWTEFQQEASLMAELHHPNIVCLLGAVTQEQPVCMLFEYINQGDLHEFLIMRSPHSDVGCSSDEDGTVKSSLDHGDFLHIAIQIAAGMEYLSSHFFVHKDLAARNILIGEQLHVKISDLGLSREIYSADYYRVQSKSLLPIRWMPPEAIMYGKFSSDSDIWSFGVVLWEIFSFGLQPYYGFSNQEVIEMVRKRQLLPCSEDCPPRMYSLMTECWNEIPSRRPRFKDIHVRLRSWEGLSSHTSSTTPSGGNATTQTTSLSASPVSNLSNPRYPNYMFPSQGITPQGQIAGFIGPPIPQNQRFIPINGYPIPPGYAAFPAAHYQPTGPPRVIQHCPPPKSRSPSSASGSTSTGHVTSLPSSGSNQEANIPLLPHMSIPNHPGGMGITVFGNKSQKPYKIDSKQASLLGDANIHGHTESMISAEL
row,IC50 [nM],Compound
1,249,CC(C)C[C@@H]1NC(=O)[C@H](Cc2ccc(O)cc2)NC(=O)[C@H]([C@@H](C)O)NC(=O)CSC[C@@H](C(=O)NCC(N)=O)NC(=O)[C@H](CC(C)C)NC(=O)[C@H](Cc2ccccc2)N(C)C(=O)[C@H](Cc2ccc(O)cc2)NC(=O)[C@H](Cc2c[nH]c3ccccc23)NC(=O)CNC(=O)[C@H](CO)NC(=O)[C@H](Cc2ccc(O)cc2)NC(=O)[C@H](C(C)C)NC1=O [Example 1073] ({CH2CO}-TYLVYSGWY[NMeF]LCG-NH2; thioether N-12)
2,122,CC(C)CC1NC(=O)[C@H](Cc2ccc(O)cc2)NC(=O)[C@H](C(C)C)NC(=O)CSC[C@@H](C(=O)NCC(N)=O)NC(=O)[C@H](CC(C)C)NC(=O)[C@H](Cc2ccccc2)N(C)C(=O)[C@H](Cc2ccc(O)cc2)NC(=O)[C@H](Cc2c[nH]c3ccccc23)NC(=O)CNC(=O)[C@H](CO)NC(=O)[C@H](Cc2ccc(O)cc2)NC(=O)[C@H](C(C)C)NC1=O (stereo partly drawn) [Example 1074] ({CH2CO}-VY[ξL]VYSGWY[NMeF]LCG-NH2; thioether N-12)
3,30,CC(C)C[C@@H]1NC(=O)[C@H](Cc2ccc(O)cc2)NC(=O)[C@H](Cc2cnc[nH]2)NC(=O)CSC[C@@H](C(=O)NCC(N)=O)NC(=O)[C@H](CC(C)C)NC(=O)[C@H](Cc2ccccc2)N(C)C(=O)[C@H](Cc2ccc(O)cc2)NC(=O)[C@H](Cc2c[nH]c3ccccc23)NC(=O)CNC(=O)[C@H](CO)NC(=O)[C@H](Cc2ccc(O)cc2)NC(=O)[C@H](C(C)C)NC1=O [Example 1075] ({CH2CO}-HYLVYSGWY[NMeF]LCG-NH2; thioether N-12)
4,518,CC(C)C[C@@H]1NC(=O)[C@H](Cc2ccc(O)cc2)NC(=O)[C@H](CC(N)=O)NC(=O)CSC[C@@H](C(=O)NCC(N)=O)NC(=O)[C@H](CC(C)C)NC(=O)[C@H](Cc2ccccc2)N(C)C(=O)[C@H](Cc2ccc(O)cc2)NC(=O)[C@H](Cc2c[nH]c3ccccc23)NC(=O)CNC(=O)[C@H](CO)NC(=O)[C@H](Cc2ccc(O)cc2)NC(=O)[C@H](C(C)C)NC1=O [Example 1076] ({CH2CO}-NYLVYSGWY[NMeF]LCG-NH2; thioether N-12)
5,2,CC(C)C[C@@H]1NC(=O)[C@H](Cc2ccc(O)cc2)NC(=O)[C@H](Cc2c[nH]c3ccccc23)NC(=O)CSC[C@@H](C(=O)NCC(N)=O)NC(=O)[C@H](CC(C)C)NC(=O)[C@H](Cc2ccccc2)N(C)C(=O)[C@H](Cc2ccc(O)cc2)NC(=O)[C@H](Cc2c[nH]c3ccccc23)NC(=O)CNC(=O)[C@H](CO)NC(=O)[C@H](Cc2ccc(O)cc2)NC(=O)[C@H](C(C)C)NC1=O [Example 1077] ({CH2CO}-WYLVYSGWY[NMeF]LCG-NH2; thioether N-12)
6,217,CC(C)C[C@@H]1NC(=O)[C@H](Cc2ccc(O)cc2)NC(=O)[C@H](Cc2ccccc2)NC(=O)CSC[C@@H](C(=O)NCC(=O)O)NC(=O)[C@H](CC(C)C)NC(=O)[C@H](Cc2ccccc2)N(C)C(=O)[C@H](Cc2ccc(O)cc2)NC(=O)[C@H](Cc2c[nH]c3ccccc23)NC(=O)CNC(=O)[C@H](CO)NC(=O)[C@H](Cc2ccc(O)cc2)NC(=O)[C@H](C(C)C)NC1=O [Example 1080] ({CH2CO}-FYLVYSGWY[NMeF]LCG-OH; thioether N-12)
7,192,CC(C)C[C@@H]1NC(=O)[C@H](Cc2ccc(O)cc2)NC(=O)[C@H](Cc2ccccc2)N(C)C(=O)CSC[C@@H](C(=O)NCC(N)=O)NC(=O)[C@H](CC(C)C)NC(=O)[C@H](Cc2ccccc2)N(C)C(=O)[C@H](Cc2ccc(O)cc2)NC(=O)[C@H](Cc2c[nH]c3ccccc23)NC(=O)CNC(=O)[C@H](CO)NC(=O)[C@H](Cc2ccc(O)cc2)NC(=O)[C@H](C(C)C)NC1=O [Example 1082] ({CH2CO}-[NMeF]YLVYSGWY[NMeF]LCG-NH2; thioether N-12)
8,227,CC[C@H](C)[C@@H]1NC(=O)CSC[C@@H](C(=O)NCC(N)=O)NC(=O)[C@H](CC(C)C)NC(=O)[C@H](Cc2ccccc2)N(C)C(=O)[C@H](Cc2ccc(O)cc2)NC(=O)[C@H](Cc2c[nH]c3ccccc23)NC(=O)CNC(=O)[C@H](CO)NC(=O)[C@H](Cc2ccc(O)cc2)NC(=O)[C@H](C(C)C)NC(=O)[C@H](CC(C)C)NC(=O)[C@H](Cc2ccc(O)cc2)NC1=O [Example 1084] ({CH2CO}-IYLVYSGWY[NMeF]LCG-NH2; thioether N-12)
9,83,CC(C)C[C@@H]1NC(=O)[C@H](Cc2ccc(O)cc2)NC(=O)[C@H](CCC(N)=O)NC(=O)CSC[C@@H](C(=O)NCC(N)=O)NC(=O)[C@H](CC(C)C)NC(=O)[C@H](Cc2ccccc2)N(C)C(=O)[C@H](Cc2ccc(O)cc2)NC(=O)[C@H](Cc2c[nH]c3ccccc23)NC(=O)CNC(=O)[C@H](CO)NC(=O)[C@H](Cc2ccc(O)cc2)NC(=O)[C@H](C(C)C)NC1=O [Example 1088] ({CH2CO}-QYLVYSGWY[NMeF]LCG-NH2; thioether N-12)
10,67,CC(C)C[C@@H]1NC(=O)[C@H](Cc2ccc(O)cc2)NC(=O)[C@H](Cc2ccccc2)NC(=O)CSC[C@@H](C(=O)NCCOCCOCC(=O)O)NC(=O)[C@H](CC(C)C)NC(=O)[C@H](Cc2ccccc2)N(C)C(=O)[C@H](Cc2ccc(O)cc2)NC(=O)[C@H](Cc2c[nH]c3ccccc23)NC(=O)CNC(=O)[C@H](CO)NC(=O)[C@H](Cc2ccc(O)cc2)NC(=O)[C@H](C(C)C)NC1=O [Example 1090] ({CH2CO}-FYLVYSGWY[NMeF]LC[AEEA]-OH; thioether N-12)

# Continued, compound first:
row,Compound,IC50 [nM]
1,CCCC[C@H]1C(=O)N[C@@H](CC(C)C)C(=O)N[C@H](C(=O)NCCOCCOCC(=O)N[C@@H](CCCCN)C(N)=O)CSCC(=O)N[C@@H](Cc2ccccc2)C(=O)N[C@@H](Cc2ccc(O)cc2)C(=O)N[C@@H](Cc2c[nH]c3ccccc23)C(=O)N[C@@H](CO)C(=O)N[C@@H](CO)C(=O)N[C@@H](CCCNC(=N)N)C(=O)N(C)[C@@H](C)C(=O)N[C@@H](Cc2c[nH]c3ccccc23)C(=O)N[C@@H](Cc2ccc(O)cc2)C(=O)N1C [Example 1079] ({CH2CO}-FYWSSR[NMeA]WY[NMeNle]LC[AEEA]K-NH2; thioether N-12),25
2,CC[C@H](C)[C@@H]1NC(=O)[C@H](Cc2ccccc2)NC(=O)CSC[C@@H](C(=O)NCC(=O)NCCOCCOCC(=O)N[C@@H](CCCCN)C(N)=O)NC(=O)[C@H](C)NC(=O)[C@H](Cc2ccccc2)NC(=O)[C@H](Cc2ccc(O)cc2)NC(=O)[C@H](Cc2c[nH]c3ccccc23)NC(=O)CNC(=O)[C@H](CCC(=O)O)NC(=O)[C@H](Cc2ccc(O)cc2)NC(=O)[C@H](C(C)C)NC(=O)[C@H](Cc2c[nH]c3ccccc23)NC1=O [Example 1081] ({CH2CO}-FIWVYEGWYFACG[AEEA]K-NH2; thioether N-12),177
3,CC(C)C[C@@H]1NC(=O)[C@H](Cc2ccc(O)cc2)NC(=O)[C@H](Cc2ccccc2)NC(=O)CSC[C@@H](C(=O)NCCOCCOCCOCCOCCOCCC(=O)N[C@@H](CCCCN)C(N)=O)NC(=O)[C@H](CC(C)C)NC(=O)[C@H](Cc2ccccc2)N(C)C(=O)[C@H](Cc2ccc(O)cc2)NC(=O)[C@H](Cc2c[nH]c3ccccc23)NC(=O)CNC(=O)[C@H](CO)NC(=O)[C@H](Cc2ccc(O)cc2)NC(=O)[C@H](C(C)C)NC1=O [Example 1083] ({CH2CO}-FYLVYSGWY[NMeF]LC[PEG5]K-NH2; thioether N-12),22
4,CC(C)C[C@@H]1NC(=O)[C@H](Cc2ccc(O)cc2)NC(=O)[C@H](Cc2ccccc2)NC(=O)CSC[C@@H](C(=O)NCCOCCOCCOCCC(=O)N[C@@H](CCCCN)C(N)=O)NC(=O)[C@H](CC(C)C)NC(=O)[C@H](Cc2ccccc2)N(C)C(=O)[C@H](Cc2ccc(O)cc2)NC(=O)[C@H](Cc2c[nH]c3ccccc23)NC(=O)CNC(=O)[C@H](CO)NC(=O)[C@H](Cc2ccc(O)cc2)NC(=O)[C@H](C(C)C)NC1=O [Example 1085] ({CH2CO}-FYLVYSGWY[NMeF]LC[PEG3]K-NH2; thioether N-12),18
5,CC(C)C[C@@H]1NC(=O)[C@H](Cc2ccccc2)NC(=O)CSC[C@@H](C(=O)NCCOCCOCC(=O)O)NC(=O)[C@H](C)NC(=O)[C@H](Cc2ccc(O)cc2)NC(=O)[C@H](Cc2ccc(O)cc2)NC(=O)[C@H](Cc2c[nH]c3ccccc23)NC(=O)CNC(=O)[C@H](Cc2ccc(O)cc2)NC(=O)[C@H](CCCNC(=N)N)NC(=O)[C@H](C(C)C)NC(=O)[C@H](Cc2c[nH]c3ccccc23)NC1=O [Example 1086] ({CH2CO}-FLWVRYGWYYAC[AEEA]-OH; thioether N-12),364
6,CC(C)C[C@@H]1NC(=O)[C@H](Cc2ccccc2)NC(=O)CSC[C@@H](C(=O)NCC(=O)NCCOCCOCC(=O)O)NC(=O)[C@H](C)NC(=O)[C@H](Cc2ccc(O)cc2)NC(=O)[C@H](Cc2ccc(O)cc2)NC(=O)[C@H](Cc2c[nH]c3ccccc23)NC(=O)CNC(=O)[C@H](Cc2ccc(O)cc2)NC(=O)[C@H](CCCNC(=N)N)NC(=O)[C@H](C(C)C)NC(=O)[C@H](Cc2c[nH]c3ccccc23)NC1=O [Example 1087] ({CH2CO}-FLWVRYGWYYACG[AEEA]-OH; thioether N-12),131
7,CC(C)C[C@@H]1NC(=O)[C@H](Cc2ccc(O)cc2)NC(=O)[C@H](Cc2ccccc2)NC(=O)CSC[C@@H](C(=O)NCCOCCOCC(=O)N[C@@H](CCCCN)C(N)=O)NC(=O)[C@H](CC(C)C)NC(=O)[C@H](Cc2ccccc2)N(C)C(=O)[C@H](Cc2ccc(O)cc2)NC(=O)[C@H](Cc2c[nH]c3ccccc23)NC(=O)CNC(=O)[C@H](CO)NC(=O)[C@H](Cc2ccc(O)cc2)NC(=O)[C@H](C(C)C)NC1=O [Example 1089] ({CH2CO}-FYLVYSGWY[NMeF]LC[AEEA]K-NH2; thioether N-12),77
8,CC(C)[C@@H]1NC(=O)[C@H](Cc2c[nH]c3ccccc23)NC(=O)[C@H](Cc2ccc(O)cc2)NC(=O)[C@H](Cc2c[nH]c3ccccc23)NC(=O)CNC(=O)[C@H](Cc2c[nH]c3ccccc23)NC(=O)[C@H](CCCNC(=N)N)NC(=O)[C@H](C(C)C)NC(=O)[C@H](Cc2ccccc2)N(C)C(=O)[C@H](CCCNC(=N)N)NC(=O)[C@H](Cc2ccccc2)NC(=O)CSC[C@@H](C(=O)NCCOCCOCC(=O)O)NC1=O [Example 1091] ({CH2CO}-FR[NMeF]VRWGWYWVC[AEEA]-OH; thioether N-12),565
